Laboratory results: patent publication EP2886531B1, “Aspartic acid derivatives” (Merck Patent GmbH, priority 2013, dated 2015)

Legend:
[1] = Prolonged piperidine treatment at 60°C of VKDRYI peptide resin (aspartimide formation); type: physicochemical
Method: (§1) Automated peptide synthesis, piperidine treatments of the resin samples and final TFA cleavages are performed as described in the protocols of example 4. In addition, to evaluate the advantage of the protecting groups used in this invention in heat accelerated SPPS we treat 50 mg peptide resin samples with a solution of 20% piperidine in DMF at 60°C over 200 minutes. Microwave assisted peptide synthesis conditions are often used to shorten peptide synthesis times and increase coupling reaction and Fmoc deprotection.
The application of microwave heating to SPPS is accelerating coupling and deprotection reactions leading to shorter cycle times, higher repetitive yields, and ultimately purer peptides. On the other hand, microwave energy can also lead to increased levels of aspartimide by-products. To overcome that drawback we evaluated the advantage of the side-chain protections used in this invention by exposing the peptide resins to Fmoc removal cycles at 60 degrees Celsius.
In table 5 the amounts of by-products formed after the prolonged exposure of the peptide resins to piperidine at 60 degree Celsius (100 Fmoc removal cycles) are summarized for all side-chain protections used in this invention. […] Table 5: Results after 100 Fmoc removal cycles using piperidine at 60°C, target peptide sequence = VKDRYI, the aspartimide (Asu) derived by-products are the aspartimide itself and the sum of piperidides

[2] = Prolonged piperidine treatment of VKDGYI peptide resin (aspartimide formation, Asp-Gly motif)
[3] = Prolonged treatment of VKDGYI peptide resin with 1 M Oxyma Pure and 20 % piperidine (aspartimide formation); type: physicochemical; settings: VKDGYI
Method: [drawing 14] 50 mg samples of the corresponding aspartic acid derivatives of example 4 are treated over 18 hours with a solution of 1 M Oxyma Pure and 20 % piperidine in dimethylformamide. The peptides are cleaved off the resin with 95 % TFA and analysed with HPLC as well as MS to identify all aspartimide related products (conditions see example 4). The results are summarized in table 6: Table 6: Results after 110 Fmoc removal cycles using an acidic modifier in the piperidine mediated Fmoc removal cocktails, target peptide = VKDG YI, the aspartimide derived by-products are the aspartimide itself and the sum of piperidides

[4] = Prolonged piperidine treatment of VKDNYI peptide resin (aspartimide formation, Asp-Asn motif); type: physicochemical; settings: piperidine
Method: (§2) Automated peptide synthesis, piperidine treatments of the resin samples and final TFA cleavages are performed as described in the protocols of example 4. In addition, 50 mg peptide resin samples are treated with a solution of DBU/piperidine/DMF (1:19:79) over 225 minutes to investigate the aspartimide formation at harsher Fmoc deprotection conditions often used for complete Fmoc removals in aggregation prone sequences.
(§3) The resulting peptide samples are analysied and all relevant impurities identified by UPLC-MS analysis (Xevo Waters Q-TOF-1, lock mass = 556.277 (leu-enkephaline), LC-conditions: CHS 18 1,7 µm (100x2.1 mm) at 40°C; water acetonitrile gradient of 5% to 35 % B over 10 min where buffer A is 0.1 % formic acid in water and buffer B is 0.1 % formic acid in acetonitrile, flow 0.6 ml/min).
In table 2 the amounts of by-products formed after the prolonged exposure of the peptide resins to piperidine (110 Fmoc removal cycles) are summarized for all side-chain protections used in this invention. […] Table 2: Results after 110 Fmoc removal cycles using piperidine, target peptide = VKDNYI, the aspartimide (Asu) derived by products are the aspartimide itself and the sum of piperidides

[5] = Prolonged piperidine treatment of VKDRYI peptide resin (aspartimide formation, Asp-Arg motif); type: physicochemical
Method: as §1
In table 4 the amounts of by-products formed after the prolonged exposure of the peptide resins to piperidine (110 Fmoc removal cycles) are summarized for all side-chain protections used in this invention. Table 4: Results after 110 Fmoc removal cycles using piperidine, target peptide sequence = VKDRYI, the aspartimide (Asu) derived by-products are the aspartimide itself and the sum of piperidides

[6] = Prolonged DBU treatment of VKDNYI peptide resin (aspartimide formation); type: physicochemical
Method: as §2, §3
In table 3 the amounts of by-products formed after prolonged DBU treatments are summarized for all side-chain protections used in this invention. […] Since the DBU mediated Fmoc removals are much quicker than the piperidine mediated, this experiment again represents a Fmoc SPPS assembly of an 100mer after introducing the aspartic acid residue using exclusively DBU for Fmoc cleavage. Table 3: Results after 110 Fmoc removal cycles using DBU, target peptide = VKDNYI, the aspartimide (Asu) derived by-products are the aspartimide itself and the sum of piperidides

[7] = VKDRYI, 20% piperidine in DMF at 60°C, 200 minutes
[8] = VKDGYI, 20 % piperidine in dimethylformamide
[9] = VKDNYI, 110 Fmoc removal cycles
[10] = VKDRYI, 110 Fmoc removal cycles
[11] = VKDNYI, DBU/piperidine/DMF (1:19:79), 225 minutes

## CC(C)(C)OC(=O)C[C@H](NC(=O)OCC1c2ccccc2-c2ccccc21)C(=O)O [tBu, Fmoc-Asp(OtBu)-OH, reference compound]
[1]; [7]
  D/L-Asu [%]: 28.7%
  piperidides [%]: 41.0%
[1]; VKDRYI, piperidine at 60°C
  Asu per 10' cycle: 1.2
  Half-life in cycles: 58 cycles
[1]; target peptide VKDRYI, 20% piperidine in DMF at 60°C over 200 minutes, 100 Fmoc removal cycles
  target [%]: 30.3%
[2]; [8]
  Asu per 10' cycle [%]: 2.3%
  Half-life in 10' cycles: 30 10' cycles
[2]; VKDGYI, 20 % piperidine in dimethylformamide, 18 hours, aspartimide
  Asu [%]: 6.4%
[2]; VKDGYI, 20 % piperidine in dimethylformamide, 18 hours, sum of piperidides
  piperidides [%]: 85.6%
[2]; VKDGYI, Oxyma Pure -
  Asu [%]: 6.4%
  Asu per 10' cycle: 2.3
  piperidides [%]: 85.6%
[2]; VKDGYI, Oxyma Pure -: 20 % piperidine only, 18 hours (as Table 1)
  target [%]: 8.0%
[2]; target peptide VKDGYI, 20 % piperidine in dimethylformamide over 18 hours, 110 Fmoc removal cycles
  target [%]: 8.0%
[3]; Oxyma Pure +
  Asu per 10' cycle: 0.45
[3]; Oxyma Pure +, 18 hours
  Asu [%]: 8.8%
  piperidides [%]: 30.1%
[3]; Oxyma Pure +: 1 M Oxyma Pure and 20 % piperidine in dimethylformamide, 18 hours
  target [%]: 61.1%
[4]; VKDNYI
  Asu per 10' cycle: 1.6
  Half-life in cycles: 40 cycles
[4]; [9]
  D/L-Asu [%]: 4.9%
  piperidides [%]: 79.0%
[4]; target peptide VKDNYI, 110 Fmoc removal cycles
  target [%]: 16.1%
[5]; VKDRYI
  Asu per 10' cycle: 1.3
  Half-life in cycles: 55 cycles
[5]; [10]
  D/L-Asu [%]: 16.9%
  piperidides [%]: 58.4%
[5]; target peptide VKDRYI, 110 Fmoc removal cycles
  target [%]: 24.7%
[6]; VKDNYI, DBU
  Asu per 2' cycle: 5.2
[6]; VKDNYI, DBU, 2' cycles
  Half-life in cycles: 13 cycles
[6]; [11]
  D/L-Asu [%]: 2.6%
  piperides [%]: 97.1%
[6]; target peptide VKDNYI, DBU/piperidine/DMF (1:19:79) over 225 minutes, 110 Fmoc removal cycles
  target [%]: 0.3%
